The assay is described as follows: ABTS-assay, inhibition of radical formation. It counts as biochemical. The note with it: for IC50: absorption at 734 nm, mean value from at least 2 independent tests. The protocol:
By means of the ABTS-assay the anti-oxidative capacity of 4-hydroxyacetophenone and alpha-tocopherol was compared. 2,2′-azino bis-(3-ethylbenzothiazoline 6-sulfonic acid) (ABTS) was transformed by potassium persulfate into the blue-green radical cation ABTS•^+. Through the addition of 4-hydroxyacetophenone and alpha-tocopherol the radical cations were reduced and discoloration was observed, which was determined photometrically by Absorption at 734 nm. The inhibition of the radical formation of the test substance is calculated by the following formula:
[formula] Wherein the abbreviations have the following meanings: • Atest substance: Absorption of the wells with test substance including 4-hydroxyacetophenone and alpha-tocopherol • Acontrol: Absorption of the wells without test substance
From the inhibition of the radical formation [%] in a series of dilutions of tested samples the IC50 was calculated. This is the concentration at which the radical formation is inhibited by 50%.

For the compound `CC(=O)c1ccc(O)cc1` [4-hydroxyacetophenone], the “fold higher IC50 value than alpha-tocopherol” value stood at 10 fold and half-maximal inhibition (IC50) required 262 µM. Moreover, the “antioxidant activity compared with alpha-tocopherol” value (in words) is reported as “much weaker antioxidant activity”.
With `Cc1c(C)c2c(c(C)c1O)CC[C@@](C)(CCC[C@H](C)CCC[C@H](C)CCCC(C)C)O2` [alpha-tocopherol, reference compound], half-maximal inhibition (IC50) required 26.8 µM. That is a double-digit micromolar value.

Broadly, the IC50 is the point on the concentration scale where inhibition reaches its midpoint. A high value points to lower potency.

The values above are taken from patent US11540987B2, “Composition with stabilized taste and odor (II)” (SYMRISE AG, priority 2015, dated 2023).
